Activity calls are given as the source filed them.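 The calls were made as follows: active = compounds giving half or more protection of infected cells from virus-caused growth loss, again on retest; inactive = the rest.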
Test system: CEM cells HIV-1 protection, formazan growth assay
Test: NCI AIDS Antiviral Assay
Settings: for IC50: measured here: growth of uninfected CEM cells
How it was run: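 Steps: treat uninfected and HIV-1-infected human CEM cells at five drug levels; quantify growth by soluble formazan; retest any compound reaching 50% protection; classify actives from the retest.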

SMILES | outcome | EC50 | IC50
Cc1ccc(S(=O)(=O)N2CCC3(C(/C=C/c4ccccc4)=Nc4ccccc43)C2c2ccccc2)cc1 (centres undefined) | inactive | – | –
CCCCCn1cnc2c1S(=O)(=O)N(C)C(NC(=O)c1ccccc1)=N2 | – | > 200 µM | > 200 µM
Cc1ccc(S(=O)(=O)OC2COCOC2C2OCOC3COCOC32)cc1 (centres undefined) | – | > 200 µM | > 200 µM
CC(C)(C)C1CCC(=O)/C(=C/CC2CC(=O)N(c3ccccc3)C(=O)C2)C1 (centres undefined) | – | > 200 µM | 11.2 µM
O=C(O)c1cc(S(=O)(=O)O)c2cccnc2c1O | – | > 200 µM | > 200 µM
COc1c(Br)cc(/C=C(\C#N)c2cccnc2)cc1Br | – | > 200 µM | 25.1 µM
Cc1cn(COCCS(=O)c2ccccc2)c(=O)[nH]c1=O (centres undefined) | – | > 200 µM | > 200 µM
COc1cc(/C=C/C(=O)c2cc(Cl)cc(Cl)c2O)cc(OC)c1OC | – | > 200 µM | 2.04 µM
CC(=O)Oc1c2c(cc3c1C(=O)NC1C3=CC(O)[C@@H](OC(C)=O)[C@H]1OC(C)=O)OCO2 (some centres undefined) | inactive | – | –
O=C(O)/C(O)=C1/C=C(c2ccccc2)c2ccccc21 | inactive | – | –
COC(=O)C[C@](O)(CCCC(C)(C)O)C(=O)O[C@@H]1C(OC)=C[C@]23CCCN2CCc2cc4c(cc2[C@H]13)OCO4 | – | > 2.29 µM | 0.0138 µM
[N-]=[N+]=NC1(c2ccccc2)C(=O)c2cccc3c4ccccc4n(c23)C1=O (centres undefined) | – | > 200 µM | > 200 µM
O=C(CCC(=O)c1ccsc1)c1ccsc1 | – | > 200 µM | > 200 µM
CC(C)(C)N/N=C(\C(=O)Nc1ccc([N+](=O)[O-])cc1[N+](=O)[O-])c1nc2ccc([N+](=O)[O-])cc2[nH]c1=O | – | > 14.5 µM | > 14.5 µM
COc1ccc2cc1Oc1ccc(cc1)CC1c3c(cc4c(c3Oc3cc5c(cc3OC)CCN(C)C5C2)OCO4)CCN1C (centres undefined) | inactive | – | –
N#Cc1nc(-c2ccsc2)oc1N | – | > 200 µM | > 200 µM
O=c1c(O)c(-c2ccccc2)oc2c(CP(=O)(O)O)cccc12 | – | > 200 µM | 162 µM
Cc1cc(C)cc(NC(N)=S)c1 | – | > 1000 µM | > 1000 µM
O=C(Nc1nc2ncn(CCOC(=O)c3ccccc3)c2c(=O)[nH]1)c1ccccc1 | – | > 85.1 µM | 61.7 µM
COC(=O)/C=C/c1cc(=O)n2c(nc3ccccc32)s1 | – | > 200 µM | > 200 µM
CC(C)(C)c1ccc(O)c(C(O)c2ccncc2)c1 (centres undefined) | – | > 200 µM | 79.4 µM
COc1ccc2nc3c([N+](=O)[O-])ccc4c3c(c2c1)NCCN4CCO | – | > 200 µM | 0.398 µM
CC12N=NN(c3ccc([N+](=O)[O-])cc3)C1(O)c1ccccc1C2=O (centres undefined) | – | > 200 µM | > 200 µM

SMILES | outcome | EC50 | IC50
O=C1C(Cl)C(c2cccc(O)c2)N1n1cnc2ccccc2c1=O (centres undefined) | – | > 75.9 µM | > 75.9 µM
CCCCN1C(=O)N(c2ccc(OCC)cc2)C2N(CCCC)C1C(C)(C)C2(C)C (centres undefined) | – | > 21.9 µM | > 21.9 µM
CCOC(=O)c1ccc(CS(=O)(=O)c2ccc([N+](=O)[O-])cc2)cc1 | – | > 53.7 µM | > 53.7 µM
CCOc1ccc(/C(O)=C/c2nc3ccccc3nc2/C=C(\O)c2ccc(OCC)cc2)cc1 | – | > 100 µM | > 100 µM
S=P(c1ccccc1)(c1ccccc1)C1(C2(P(=S)(c3ccccc3)c3ccccc3)CC2)CC1 | – | > 10 µM | > 10 µM
Cn1c2c(c3ccccc31)C1CCCCCCC1C1C(=O)OC(=O)C21 (centres undefined) | inactive | – | –
O=C(O)CC[N+]1=CCC(c2ccccc2)(c2ccccc2)O1 | – | > 832 µM | > 832 µM
COc1ccc(-c2[nH]c(-c3ccc(OC)cc3)c(-c3ccccn3)c2-c2ccccn2)cc1 | – | > 200 µM | 24.5 µM
CS(=O)(=O)CSCSSCS(C)(=O)=O | – | > 427 µM | 20 µM
CC1=CN2C(c3ccc(Cl)cc3)=NON(c3ccc(C)cn3)C2C=C1 (centres undefined) | – | > 10.2 µM | > 10.2 µM
CC([C@H]1CCC2C3CCC4CC5(CC[C@]4(C)C3CC[C@@]21C)c1ccccc1C(=O)N5C)N(C)C (some centres undefined) | – | > 8.13 µM | > 8.13 µM
CC(=O)ON1C(c2ccc([N+](=O)[O-])cc2)OCC2OC(n3cc(C)c(=O)[nH]c3=O)C[C@H]21 (some centres undefined) | – | > 200 µM | > 200 µM
COc1cc(NC=O)c2c(c1)SCC(=O)N2 | – | > 200 µM | 135 µM
O=C(Nc1ccccc1)C(=O)C(C(=O)c1ccccc1)C(c1ccccc1)c1ccccc1 (centres undefined) | – | > 200 µM | 37.2 µM
CN1CCCc2nc3ccccc3n2C1 | – | > 36.3 µM | > 36.3 µM
COc1cc(NCC(C#N)C#N)ccc1N=Nc1ccc([N+](=O)[O-])cc1 | – | > 38.9 µM | > 38.9 µM
C1=C(c2ccccc2)NC2=N[C@H]3CCCC[C@@H]3N2C1c1ccccc1 (some centres undefined) | – | > 126 µM | 8.13 µM
CCN(CC)CCN(C(=Nc1ccccc1)N1CCCCC1)c1ccccc1 | – | > 200 µM | 1.29 µM
COc1ccc(C(=O)C(C(=O)C(=O)Nc2nc3ccc(OC)cc3s2)c2ccc(OC)cc2)cc1 (centres undefined) | – | > 38 µM | > 38 µM
CCOC(=O)/C=C1\CCC(C)n2c1nccc2=O (centres undefined) | – | > 200 µM | 110 µM
CC(C)O/N=C/c1cc(NC(=S)OC(C)C)ccc1Cl | – | 0.0447 µM | 22.9 µM
Cc1cccc(NC(=S)Nc2ccc(Cl)cc2)n1 | – | > 200 µM | > 200 µM
O=C(OC/C=C1C=C(OC(=O)c2ccccc2)/C(=N/N(C(=O)c2ccccc2)c2ccccc2)O\1)c1ccccc1 | – | > 200 µM | 11 µM

SMILES | outcome | EC50 | IC50
Oc1cc(O)cc(-c2c(O)cc(O)cc2O)c1 | – | > 200 µM | 145 µM
N=C(OC1CCCCC1)N1CCOCC1 | – | > 200 µM | > 200 µM
O=C(O)CCC(=O)NCCNC(=O)CC(=O)O | – | > 1000 µM | > 1000 µM
COc1ccc(/C=C2\CN(C)C/C(=C\c3ccc(OC)c(OC)c3OC)C2=O)c(OC)c1OC | – | > 2 µM | 0.331 µM
CC12CCC(=O)[C@@]1(C)CCCC2O (some centres undefined) | inactive | – | –
COc1ccc(OC)c2c1C=CC(Br)=CC2 | – | > 200 µM | 53.7 µM
O=C(Oc1ccccc1)C(c1ccccc1)c1ccccc1 | – | > 102 µM | > 102 µM
N#CCCN(CCN(C(=O)Nc1ccccc1)c1ccccc1)C(=O)Nc1ccccc1 | – | > 200 µM | 55 µM
O=C1NC(=O)C(=Cc2cccc(F)c2)C(=O)N1 | – | > 112 µM | > 112 µM
COc1cc2c(cc1O)CC13CCC(=O)N1CCc1cc(OC)c(O)c-2c13 (centres undefined) | inactive | – | –
O=c1[nH]n(CCc2ccncc2)c(=O)c2ccccc12 | – | > 200 µM | > 200 µM
CN1CC(C(=O)C2C(=O)c3ccccc3C2=O)C(=O)C(=O)C(C(=O)C2C(=O)c3ccccc3C2=O)C1 (centres undefined) | inactive | – | –
COc1cccc2c1C1(O)C2CCCCCCCCCC12OCCCO2 (centres undefined) | – | > 91.2 µM | 69.2 µM
Nc1c[nH][nH]c(=S)c1=S | – | > 200 µM | 3.63 µM
CCCC[C@@H](C)/C=C1\CN2CCC[C@H]2[C@@](C)(O)[C@@H]1O | – | > 200 µM | 75.9 µM
CNC(=O)N1CN(c2ccccc2)C2(CCN(CCCC(=O)c3ccc(F)cc3)CC2)C1=O | – | > 200 µM | 10.5 µM
CC1(c2ccc(Cl)cc2)OC(=O)c2c1ccc1ccccc21 (centres undefined) | inactive | – | –
N#C/C(=C\c1ccc(O)cc1)c1ccc([N+](=O)[O-])cc1 | – | > 200 µM | 174 µM
NS(=O)(=O)c1ccc(NNc2c3ccccc3nc3c(C(=O)Nc4ccc(S(=O)(=O)Nc5ncccn5)cc4)cccc23)cc1 | – | > 50.1 µM | 26.9 µM
COc1ccc2c(O)c(S(=O)(=O)c3ccc(C)cc3)c(=O)oc2c1OC | – | > 100 µM | > 100 µM
Nc1ncnc2c1ncn2C1CCCCC1O (centres undefined) | – | > 58.9 µM | > 58.9 µM
CC1(C)SC(C)(C)N2C(=O)[C@H]3N(C(=O)[C@@H]21)C(C)(C)SC3(C)C | – | > 75.9 µM | > 75.9 µM
CCCc1cc(=O)oc2c3c(c4c(c12)OC(C)(C)C=C4)O[C@H](C)[C@@H](C)C3O (some centres undefined) | – | 2.4 µM | 11.7 µM

SMILES | outcome | EC50 | IC50
CCOC(=O)C(NC(=O)CC)(Nc1ccc(S(=O)(=O)Nc2onc(C)c2C)cc1)C(F)(F)F (centres undefined) | – | > 200 µM | > 200 µM
Cc1ccc(OCC2OC(n3cnc4c(Cl)nc(N)nc43)CC2Oc2ccc(C)cc2)cc1 (centres undefined) | – | > 200 µM | 66.1 µM
O=C(O)c1cscc1C(=O)O | – | > 200 µM | > 200 µM
O=C(O)CC1OCC=C2CN3CCC45C6=CC(=O)C(=O)C([N+](=O)[O-])=C6NC4C1C2CC35 (centres undefined) | – | > 200 µM | 28.2 µM
CC(C)(C)[Si](C)(C)Oc1cc(CO)cc2c1cc(=N)o[n+]2[O-] | – | > 200 µM | 10.2 µM
Cc1cc2c(oc(=O)c3cc(C)sc32)s1 | – | > 42.7 µM | > 42.7 µM
CCOC(=O)C(=O)c1c2cn(O)nc(OC)c-2nc1[N+](=O)[O-] | – | > 813 µM | 537 µM
O=C1CCC(=O)N1n1c(Cc2ccccc2)n[nH]c1=O | – | > 200 µM | > 200 µM
COC(=O)C12CC3CC(CC(C(=O)O)(C3)C1)C2 | – | > 759 µM | > 759 µM
C=CC1(C)CN(Cc2ccccc2)C(C(=O)OCC)O1 (centres undefined) | – | > 26.3 µM | > 26.3 µM
COc1ccc(C2C(=O)c3ccc(OC)cc3OC2c2ccccc2)cc1 (centres undefined) | – | > 200 µM | 87.1 µM
CCC(F)(C(N)=O)C(=O)O (centres undefined) | – | > 200 µM | > 200 µM
COc1ccc(NC(=O)C(=O)Cc2nc3ccc(C(=O)c4ccccc4)cc3[nH]c2=O)c([N+](=O)[O-])c1 | – | > 195 µM | 51.3 µM
c1cc(-c2ncc(-c3ccc4c(c3)CCCO4)o2)ccn1 | – | > 200 µM | 11.2 µM
O=[N+]([O-])C(=C/C1CCCCC1)/C(=C\C1CCCCC1)[N+](=O)[O-] | – | > 200 µM | 4.57 µM
C=C1CN(C2=NCCO2)C1 | – | > 200 µM | > 200 µM
Nc1ccc2c(c1)C(=O)N(O)C2=O | – | > 1410 µM | 759 µM
COC(CCC[N+](C)(C)C)CC[N+](C)(C)C (centres undefined) | – | > 100 µM | > 100 µM
Cn1c(=O)c(Br)c(C=O)n(CCO[N+](=O)[O-])c1=O | – | > 200 µM | 1.78 µM
O=C1OC(C(=O)O)c2ccc3c(c21)OCO3 (centres undefined) | – | > 398 µM | > 398 µM
